In paper PMC4965013, “Open Source Drug Discovery with the Malaria Box Compound Collection for Neglected Diseases and Beyond” (PLoS Pathogens, 2016):
Like-named read-outs stand apart in the source and are kept apart here.

Columns and labels:
[1] = test system: P. falciparum 3D7 or K1; experiment: Asexual Blood Stage Imaging Assay (DAPI) V. Avery; type: cell-based; settings: Plasmodium falciparum; 5µM; read-out: P. falciparum 3D7 asexual blood stage % inhibition (Image)
[2] = test system: P. berghei liver stages in HepG2; experiment: P. berghei liver stage luciferase Hanson; type: cell-based; settings: Plasmodium berghei, read-out: P. berghei Liver Stage % of control infection (Luciferase)
Protocol: Columns AS-AT: Hanson group (data presented first in this paper). P. berghei liver stage growth. Phenotypic analysis of Malaria Box compound activity against P. berghei liver stages and assay development will be reported elsewhere (Medina Vera, Itoe, et al; in preparation). Methods: Screening was carried out in 96 well plates, with 10,000 HepG2 cells (ATCC) seeded one day prior to infection with 10,000 P. berghei-Luciferase (676m1cl1) sporozoites per well in the presence of 1:300 Fungizone (Life Technologies). Medium was replaced 2 hours post-infection (hpi) and the Malaria Box compounds were added at a final concentration of 5 µM at this time. At 48 hpi, parasite load, by way of luminescence, was quantified after a 10 minute incubation with 50 µl of 150 µg/ml D-Luciferin on a Tecan Infinite M200 plate reader. Plates included 8 wells of DMSO (compound vehicle and positive control for infection), along with 8 non-infected wells serving as negative controls. Luminescence values for individual wells were normalized to the mean of the in-plate DMSO controls, which was set at 100. […] The normalized mean of non-infected control wells was 2.5, with a standard deviation of 2. Data presented are the average of 3 independent experiments, each conducted in technical triplicate. Toxicity of the compounds was determined at 66 hpi based on HepG2 cell abundance in 9 non-overlapping images per well, generated with a Molecular Devices IXM using a 40x objective. Briefly, EEFs were identified based on 2E6 immunolabeling and used to mask widefield images of Hoechst 33452-labeled nuclei, and the percentage of each 2,160 x 2,160 pixel image occupied by Hoechst^+ pixels, representing HepG2 nuclei only, was then determined for all images in CellProfiler. Data is from one representative experiment. The mean area occupied by HepG2 nuclei in the 8 DMSO controls wells was set to 1, and used to normalize those treated with compounds.

[3] = test system: Trypanosoma brucei brucei 427; experiment: T. brucei brucei Scynexis; type: cell-based
[4] = test system: Leishmania donovani axenic amastigotes; experiment: L. donovani axenic amastigotes Scynexis; type: cell-based
[5] = test system: B. bovis (Texas strain); experiment: B. bovis fluorescence-based growth assay; type: cell-based; settings: Babesia bovis, in Bos taurus
[6] = test system: T. equi (USDA strain); experiment: T. equi fluorescence-based growth assay; type: cell-based; settings: Theileria equi
[7] = test system: Naegleria fowleri trophozoites; experiment: Naegleria fowleri CellTiter-Glo; type: cell-based; settings: 1µM
Method in brief: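 Growth inhibition of Naegleria fowleri trophozoites in vitro, read as cellular ATP by CellTiter-Glo 2.0 luminescence in lysed cells, output in relative light units.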

[8] = test system: Brugia malayi; experiment: Brugia malayi Scynexis; type: cell-based; settings: 10µM
Protocol: Supplement ppat.1005763.s002.xlsx, sheet "S1 Table Heat Map" | column: Brugia malayi 5d % dead at 10µM Scynexis

[9] = test system: Saccharomyces cerevisiae strain JHY222; experiment: S. cerevisiae JHY222 growth in three media; type: cell-based; settings: 100µM
Protocol: Columns EB-ED: St. Onge group (data presented first in this paper). Growth inhibition of S. cerevisiae: The effects of Malaria Box compounds on the growth of yeast (Saccharomyces cerevisiae) were quantified as described previously. We employed the prototrophic yeast strain JHY222, a derivative of BY4743 in which auxotrophic markers have been repaired. Growth was measured in three different growth media: rich medium using dextrose as a carbon source, minimal medium using dextrose as a carbon source, or minimal medium using ethanol and glycerol as carbon sources. Compounds affecting growth in a media-specific manner may represent inhibitors of key metabolic pathways. For example, the antifolate drug methotrexate was previously shown to inhibit yeast growth far more potently in minimal medium compared to rich medium.

[10] = test system: Mycobacterium tuberculosis mc26220 non-replicating; experiment: microbe, parasite or virus in culture; type: cell-based
[11] = test system: P. falciparum in vitro translation; parameters: method as in ref [19] (a number printed in a supplementary file, which may have a reference list of its own: not looked up in the article's list); settings: 1 µM; ref [19]; cited from earlier work
[12] = test system: P. berghei liver stage in HepG2-A16-CD81EGFP; parameters: method as in ref [58, 65] (a number printed in a supplementary file, which may have a reference list of its own: not looked up in the article's list); settings: ref [58, 65], cited from earlier work; for P. berghei Liver stage activity summary: 50uM; for P. berghei Liver stage infection rate rep1 (luciferase) / P. berghei Liver stage infection rate rep2 (luciferase): 50µM
[13] = test system: P. falciparum NF54 GFP-Pfs16 gametocytes stage I-III; settings: ref [64], cited from earlier work
[14] = test system: Trypanosoma brucei rhodesiense STIB 900; settings: ref [84]; cited from earlier work
[15] = test system: S. mansoni newly transformed schistosomula (NTS); parameters: method as in ref [91] (a number printed in a supplementary file, which may have a reference list of its own: not looked up in the article's list); settings: ref [91]; read-out: Schistosoma mansoni newly transformed schistosomula EC50 J. Keiser; cited from earlier work
[16] = biological target: PfPMT (Plasmodium falciparum, UniProt Q8IDQ9); experiment: PfPMT gene replacement yeast growth
Sequence of PfPMT (Q8IDQ9 whole entry): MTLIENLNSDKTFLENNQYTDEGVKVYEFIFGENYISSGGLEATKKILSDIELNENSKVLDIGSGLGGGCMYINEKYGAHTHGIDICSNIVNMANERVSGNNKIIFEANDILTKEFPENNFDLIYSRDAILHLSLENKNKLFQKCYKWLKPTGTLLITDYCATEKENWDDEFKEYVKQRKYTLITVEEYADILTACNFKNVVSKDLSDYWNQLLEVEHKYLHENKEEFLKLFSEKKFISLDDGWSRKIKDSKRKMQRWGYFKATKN

[17] = read-out: % Inhibition in PfPMT gene replacement yeast, no added choline
[18] = read-out: % Inhibition in PfPMT gene replacement yeast, with added choline

Row | Compound | inhibition at 5 µM [1] [%] | activity at 5 µM [2] [%] | inhibition at 5 µM [3] [%] | inhibition at 5 µM [4] [%] | EC50 [5] [µM] | EC50 [6] [µM] | Naegleria fowleri % growth [7] [%] | Brugia malayi 5d % dead [8] [%] | S. cerevisiae jhy222 in YNBD medium growth compared with DMSO control [9] | S. cerevisiae jhy222 in YNBEG medium growth compared with DMSO control [9] | S. cerevisiae jhy222 in YPD medium growth compared with DMSO control [9] | inhibition at 25 µM [10] [%] | Translation Inhibitors (nl = 1.0, in vitro translation with P. falciparum lysate) [11] | P. berghei Liver stage infection rate rep1 (luciferase) [12] [%] | P. berghei Liver stage infection rate rep2 (luciferase) [12] [%] | gametocyte early stage (I-III) GFP-MTR % inhibition ([13]; 0.5µM) [%] | gametocyte early stage (I-III) GFP-MTR % inhibition ([13]; 5µM) [%] | EC50 [15] [µM] | inhibition at 100 µM [16, 17] [%] | inhibition at 100 µM [16, 18] [%] | also measured
1 | CCN1CCN(c2cc(C)c3cc(NC(=O)c4ccc(OC)c(OC)c4)ccc3n2)CC1 [MMV019074] | 99 | 105 | 45 | -34 | 6.69 | 0.33 | 88 | -2 | 0.0025 | -0.0049 | -0.0537 | 13 | 0.94 | -3.74 | -4 | 11 | 14 | > 33.3 | 0 | 0 | P. berghei Liver stage activity summary [12]: tox (tox (toxic) if >50% HepG2); EC50 [14]: 3.22 µM
2 | CCOC(=O)c1cnc2ccc(OC)cc2c1NCc1ccccc1 [MMV665813] | 97 | 66 | -25 | 52 | 0.72 | 14.1 | 91 | 12 | -0.13 | -0.06 | 0.0021 | 23 | 1.47 | -3.22 | -4 | 26 | 17 | > 33.3 | 0 | 0 | P. berghei Liver stage activity summary [12]: tox (tox (toxic) if >50% HepG2); EC50 [14]: 4.95 µM
3 | CCN(CC)c1cc(C)c2cc(NC(=O)c3cccc(OC)c3)ccc2n1 [MMV000498] | 97 | 63 | 74 | -65 | 10 | 0.46 | 80 | 13 | -0.05 | 0.14 | -0.0562 | 20 | 0.87 | -3.74 | -5.7 | 15 | 16 | > 33.3 | 16 | 0 | P. berghei Liver stage activity summary [12]: tox (tox (toxic) if >50% HepG2); EC50 [14]: 0.679 µM
4 | COc1ccc(C(=O)Nc2ccc3nc(N4CCCCC4)cc(C)c3c2)cc1OC [MMV019758] | 76 | 74 | -11 | -50 | 14.3 | 6.99 | 87 | 9 | 0.0051 | 0.20 | 0.0044 | 24 | 0.98 | -4 | -4 | -8 | 8 | > 33.3 | 0 | 0 | P. berghei Liver stage activity summary [12]: tox (tox (toxic) if >50% HepG2); EC50 [14]: 10.9 µM
5 | COc1cc2cc(C(=O)Nc3ccccc3)c(N)nc2cc1OC [MMV006767] | 99 | 53 | -54 | -49 | 0.86 | 3.04 | 95 | 18 | -0.11 | -0.49 | -0.0536 | 1.39 | 0.75 | 27 | 61 | 17 | 99 | > 33.3 | 0 | 0 | –
